We go through one compound from ChEMBL document CHEMBL2073747, “Methadone inhibits rhodamine123 transport in Caco-2 cells” (Drug Metab Dispos, 2001).

Series [1] concerns the target T1, ATP-dependent translocase ABCB1 (Homo sapiens, UniProt P08183). In words: TP_TRANSPORTER: transepithelial transport (basal to apical) in Caco-2 cells. The class given is functional, cell-based. Background: Passage across Caco-2 layers is used to estimate intestinal permeability.
For series [2], the target named is T1, ATP-dependent translocase ABCB1. In words: TP_TRANSPORTER: inhibition of Rhodamine 123 transepithelial transport (basal to apical) (Rhodamine 123: 5 uM) in Caco-2 cells. The class given is functional, cell-based.

T1 sequence (P08183 whole entry): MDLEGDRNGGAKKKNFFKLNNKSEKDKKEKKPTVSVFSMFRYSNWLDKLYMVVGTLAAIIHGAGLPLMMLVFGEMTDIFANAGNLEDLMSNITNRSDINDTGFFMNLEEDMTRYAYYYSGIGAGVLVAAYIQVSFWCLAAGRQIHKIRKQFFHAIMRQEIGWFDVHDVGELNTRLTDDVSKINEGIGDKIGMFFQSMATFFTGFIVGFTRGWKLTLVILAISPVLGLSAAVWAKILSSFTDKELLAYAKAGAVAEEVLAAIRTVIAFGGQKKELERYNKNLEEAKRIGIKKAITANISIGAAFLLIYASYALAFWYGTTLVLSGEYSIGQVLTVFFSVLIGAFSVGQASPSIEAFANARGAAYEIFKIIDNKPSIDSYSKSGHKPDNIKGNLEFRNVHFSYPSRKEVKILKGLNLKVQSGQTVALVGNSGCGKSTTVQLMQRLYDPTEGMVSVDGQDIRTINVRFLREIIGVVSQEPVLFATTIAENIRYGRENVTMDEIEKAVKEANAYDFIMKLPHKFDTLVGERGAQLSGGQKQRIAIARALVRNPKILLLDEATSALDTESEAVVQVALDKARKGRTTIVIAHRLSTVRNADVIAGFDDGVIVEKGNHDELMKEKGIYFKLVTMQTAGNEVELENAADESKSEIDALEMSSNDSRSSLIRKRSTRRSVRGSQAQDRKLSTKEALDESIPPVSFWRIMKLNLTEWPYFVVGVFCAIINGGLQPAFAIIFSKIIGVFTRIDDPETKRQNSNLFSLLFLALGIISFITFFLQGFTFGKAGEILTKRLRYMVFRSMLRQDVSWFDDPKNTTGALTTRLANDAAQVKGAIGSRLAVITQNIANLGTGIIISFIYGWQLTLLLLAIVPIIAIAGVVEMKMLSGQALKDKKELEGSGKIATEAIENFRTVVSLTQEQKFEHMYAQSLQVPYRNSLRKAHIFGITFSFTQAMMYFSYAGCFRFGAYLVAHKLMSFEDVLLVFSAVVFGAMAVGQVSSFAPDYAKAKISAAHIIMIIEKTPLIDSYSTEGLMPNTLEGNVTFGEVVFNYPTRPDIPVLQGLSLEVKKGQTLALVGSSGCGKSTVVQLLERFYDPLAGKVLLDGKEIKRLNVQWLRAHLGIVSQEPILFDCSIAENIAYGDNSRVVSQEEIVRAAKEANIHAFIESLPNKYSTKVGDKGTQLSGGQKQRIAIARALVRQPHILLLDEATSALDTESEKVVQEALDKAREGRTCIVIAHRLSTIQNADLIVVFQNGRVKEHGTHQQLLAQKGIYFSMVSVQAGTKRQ

In the case of `CCC(=O)C(CC(C)N(C)C)(c1ccccc1)c1ccccc1` (configuration not stated) [METHADONE], the Activity entry in series [1] is “is not a substrate [-]”. In series [2], this compound registered an IC50 of 7.5 µM.

Broadly, the IC50 is the concentration needed to halve the response being measured. A low value points to inhibition by little substance.
